# Data taken from patent publication US10919896B2, “Preparation and uses of pyrimidinone derivatives” (Cancer Research Technology Limited, priority 2016, dated 2021).
# Target: Cdc7/Dbf4 (Homo sapiens, UniProt O00311)
# Experiment: Cdc7 Biochemical Assay Method 3: Cdc7/Dbf4 Enzyme TR-FRET Assay measuring pS40MCM2
# Details: 1 μM ATP, read-out: Biochemical Method 3 (pIC50) (converted)
# Protocol: This protocol describes a method for assaying a compounds' ability to inhibit Cdc7 activity by measuring pS40MCM2 levels in a Cdc7/Dbf4 Enzyme TR-FRET Assay.
# 2.5 nM Cdc7/Dbf4 was incubated with 100 nM of biotin-labelled peptide 35-TDALTS(pS)PGRDLP in the presence of 1 μM ATP at 25° C. for 120 minutes. The phosphorylation of the peptide was detected using TR-FRET. Anti-Mcm2 (pS40) antibody, Terbium anti-rabbit secondary antibody and Streptavidin-Alexa Fluor488 form the detection system.
# Sequence of Cdc7/Dbf4 (O00311 whole entry): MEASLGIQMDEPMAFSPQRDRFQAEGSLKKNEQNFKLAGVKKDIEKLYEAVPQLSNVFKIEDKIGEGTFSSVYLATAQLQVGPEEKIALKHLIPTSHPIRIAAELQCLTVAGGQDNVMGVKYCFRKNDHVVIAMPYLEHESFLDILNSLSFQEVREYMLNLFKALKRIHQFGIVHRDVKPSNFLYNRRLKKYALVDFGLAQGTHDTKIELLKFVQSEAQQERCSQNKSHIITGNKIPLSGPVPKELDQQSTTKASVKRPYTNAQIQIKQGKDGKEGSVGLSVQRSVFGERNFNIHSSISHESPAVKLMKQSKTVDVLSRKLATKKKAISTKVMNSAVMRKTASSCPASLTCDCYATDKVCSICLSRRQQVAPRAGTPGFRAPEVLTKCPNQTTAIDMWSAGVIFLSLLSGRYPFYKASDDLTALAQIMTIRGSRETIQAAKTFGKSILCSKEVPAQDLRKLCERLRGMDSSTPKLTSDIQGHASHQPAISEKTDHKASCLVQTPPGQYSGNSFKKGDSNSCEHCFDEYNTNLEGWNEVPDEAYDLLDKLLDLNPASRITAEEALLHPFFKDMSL
# Sequence of Cdc7/Dbf4 (Q9UBU7 whole entry partner): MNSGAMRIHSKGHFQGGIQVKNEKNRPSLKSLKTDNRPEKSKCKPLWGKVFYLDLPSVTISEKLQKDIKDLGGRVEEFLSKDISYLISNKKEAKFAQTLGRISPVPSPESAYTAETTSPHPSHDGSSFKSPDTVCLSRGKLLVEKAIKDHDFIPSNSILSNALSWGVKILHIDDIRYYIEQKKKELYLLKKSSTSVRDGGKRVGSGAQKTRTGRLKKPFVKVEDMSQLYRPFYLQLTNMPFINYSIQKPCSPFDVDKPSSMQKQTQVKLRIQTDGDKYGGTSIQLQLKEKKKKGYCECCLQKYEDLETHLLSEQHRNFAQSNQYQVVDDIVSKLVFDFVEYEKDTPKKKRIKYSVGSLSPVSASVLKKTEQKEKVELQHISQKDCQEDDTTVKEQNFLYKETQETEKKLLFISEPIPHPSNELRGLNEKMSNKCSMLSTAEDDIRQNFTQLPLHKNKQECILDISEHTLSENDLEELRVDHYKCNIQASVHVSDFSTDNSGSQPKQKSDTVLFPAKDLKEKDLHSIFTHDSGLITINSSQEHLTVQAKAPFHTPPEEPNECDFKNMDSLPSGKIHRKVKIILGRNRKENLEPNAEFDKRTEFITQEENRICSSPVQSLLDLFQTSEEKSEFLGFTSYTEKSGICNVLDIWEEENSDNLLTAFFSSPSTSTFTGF
row,Structure (SMILES),IC50
1,O=c1[nH]c(-c2ccncc2)nc(N2C[C@H]3C[C@@H]2CN3)c1Cl [Compound 161],1.74 nM
2,"CC(C)CN1CCC(c2nc(-c3ccncc3)[nH]c(=O)c2Cl)CC1 [Compound 39, 5-chloro-4-(1-isobutyl-4-piperidyl)-2-(4-pyridyl)-1H-pyrimidin-6-one]",5.75 nM
3,O=c1[nH]c(-c2ccncc2)nc(N2CCNC(c3ccc(Cl)cc3)C2)c1Cl (stereo not shown) [Compound 168],1.91 nM
4,O=c1[nH]c(-c2ccnc(F)c2)nc(N2CCCC23CCNC3)c1Cl (stereo not shown) [Compound 259],2.82 nM
5,CN1CCN(C2CCN(c3nc(-c4ccnc(F)c4)[nH]c(=O)c3Cl)CC2)CC1 [Compound 265],4.07 nM
6,O=c1[nH]c(-c2ccnc(F)c2)nc(N2CCOC(CN3CCCCC3)C2)c1Cl (stereo not shown) [Compound 202],10 nM
7,O=c1[nH]c(-c2ccnc(F)c2)nc(N2CCC3(CCNC3)CC2)c1Cl [Compound 242],1.15 nM
8,O=c1[nH]c(-c2ccnc(F)c2)nc(N2CCOC3(CCNCC3)C2)c1Cl [Compound 227],2.24 nM
9,O=c1[nH]c(-c2ccnc(F)c2)nc(N2CCCC(F)(F)CC2)c1Cl [Compound 204],4.07 nM
10,NC(=O)[C@@H]1CCN(c2nc(-c3ccnc(F)c3)[nH]c(=O)c2Cl)C1 [Compound 249],9.33 nM
11,O=c1[nH]c(-c2ccnc(F)c2)nc(N2CCCC2CN2CCOCC2)c1Cl (stereo not shown) [Compound 246],1000 nM
12,O=c1[nH]c(-c2ccnc(F)c2)nc(SC2CCNCC2)c1Cl [Compound 193],2.88 nM
13,NC(=O)[C@H]1CCN(c2nc(-c3ccnc(F)c3)[nH]c(=O)c2Cl)C1 [Compound 251],4.07 nM
14,O=c1[nH]c(-c2ccnc(F)c2)nc(N2CCN(c3nc[nH]n3)CC2)c1Cl [Compound 295],0.891 nM
15,O=c1[nH]c(-c2ccnc(F)c2)nc(N2CCC3(CCCO3)CC2)c1Cl [Compound 238],5.25 nM
16,O=c1[nH]c(-c2ccnc(F)c2)nc(N2CCC3(CC2)OCCO3)c1Cl [Compound 236],14.5 nM
17,O=c1[nH]c(-c2ccnc(F)c2)nc(N2CCC3(CCCN3)C2)c1Cl (stereo not shown) [Compound 217],45.7 nM
18,O=c1[nH]c(-c2ccnc(F)c2)nc(N2CCC3(CCNCC3)C2)c1Cl [Compound 230],6.61 nM
19,CCNC(=O)C1CCN(c2nc(-c3ccnc(F)c3)[nH]c(=O)c2Cl)CC1 [Compound 257],6.03 nM
20,C[C@@H]1COC[C@H](C)N1c1nc(-c2ccnc(F)c2)[nH]c(=O)c1Cl [Compound 343],6.76 nM
21,CC1CN(C)CCCN1c1nc(-c2ccnc(F)c2)[nH]c(=O)c1Cl (stereo not shown) [Compound 302],25.1 nM
22,CN(c1nc(-c2ccnc(F)c2)[nH]c(=O)c1Cl)[C@H]1CCCNC1 [Compound 267],3.89 nM
23,O=c1[nH]c(-c2ccnc(F)c2)nc(N2CCn3c(nnc3C(F)(F)F)C2)c1Cl [Compound 291],4.17 nM
24,O=c1[nH]c(-c2ccnc(F)c2)nc(N2CCC3CNCCC32)c1Cl (stereo not shown) [Compound 225],2.09 nM
25,O=c1[nH]c(-c2ccnc(F)c2)nc(N2CC3(CNC3)C2)c1Cl [Compound 198],66.1 nM
26,O=c1[nH]c(-c2ccnc(F)c2)nc(CN2CCNCC2)c1Cl [Compound 398],295 nM
27,CC1c2nnc(C(F)(F)F)n2C(C)CN1c1nc(-c2ccnc(F)c2)[nH]c(=O)c1Cl (stereo not shown) [Compound 356],10 nM

row,Structure (SMILES),IC50
1,CC(C)[C@@H]1CN(c2nc(-c3ccnc(F)c3)[nH]c(=O)c2Cl)CCN1 [Compound 327],6.61 nM
2,CC1(C)CNCCC1Nc1nc(-c2ccnc(F)c2)[nH]c(=O)c1Cl (stereo not shown) [Compound 211],17.4 nM
3,O=c1[nH]c(-c2ccnc(F)c2)nc(NCc2ccccc2)c1Cl [Compound 290],355 nM
4,"O=c1[nH]c(-c2ccnc(F)c2)nc(C2CCOCC2)c1Cl [Compound 13, 5-chloro-2-(2-fluoro-pyridin-4-yl)-6-(tetrahydro-pyran-4-yl)-3H-pyrimidin-4-one]",0.759 nM
5,O=c1[nH]c(-c2ccnc(F)c2)nc(O[C@@H]2CCCNC2)c1Cl [Compound 330],0.955 nM
6,CC(C)(O)[C@H]1CN(c2nc(-c3ccnc(F)c3)[nH]c(=O)c2Cl)CCN1 [Compound 187],1.86 nM
7,O=c1[nH]c(-c2ccnc(F)c2)nc(N2CCC(CN3CCOCC3)C2)c1Cl (stereo not shown) [Compound 212],79.4 nM
8,O=c1[nH]c(-c2ccnc(F)c2)nc(N2CCOC3(CCOCC3)C2)c1Cl [Compound 292],11.5 nM
9,O=c1[nH]c(-c2ccnc(F)c2)nc(N2CCO[C@H]3CCCC[C@@H]32)c1Cl [Compound 332],6.31 nM
10,O=C1CCN(c2nc(-c3ccnc(F)c3)[nH]c(=O)c2Cl)CCN1 [Compound 288],0.933 nM
11,O=c1[nH]c(-c2ccnc(F)c2)nc(OC2COC2)c1Cl [Compound 199],389 nM
12,O=c1[nH]c(-c2ccnc(F)c2)nc(N2CCn3cnnc3C2)c1Cl [Compound 269],0.525 nM
13,CC(=O)N[C@H]1CCN(c2nc(-c3ccnc(F)c3)[nH]c(=O)c2Cl)C1 [Compound 274],5.01 nM
14,"O=c1[nH]c(-c2ccnc(F)c2)nc(CN2CCOCC2)c1Cl [Compound 397, 5-chloro-2-(2-fluoro-4-pyridyl)-4-(morpholinomethyl)-1H-pyrimidin-6-one]",219 nM
15,C[C@H]1COC[C@H](C)N1c1nc(-c2ccnc(F)c2)[nH]c(=O)c1Cl [Compound 342],129 nM
16,CC(C)C[C@H]1CN2CCC[C@H]2CN1c1nc(-c2ccnc(F)c2)[nH]c(=O)c1Cl [Compound 349],83.2 nM
17,Nc1ccc(Oc2nc(-c3ccnc(F)c3)[nH]c(=O)c2Cl)cc1 [Compound 287],19.1 nM
18,O=C1NC(=O)C2(CCN(c3nc(-c4ccnc(F)c4)[nH]c(=O)c3Cl)CC2)N1 [Compound 233],2.19 nM
19,N[C@H]1CC[C@@H](Oc2nc(-c3ccnc(F)c3)[nH]c(=O)c2Cl)C1 [Compound 195],1.32 nM
20,O=c1[nH]c(-c2ccnc(F)c2)nc(NC2CCNCC2)c1Cl [Compound 222],13.5 nM
21,O=c1[nH]c(-c2ccnc(F)c2)nc(N2CCC3(CCNC3)C2)c1Cl (stereo not shown) [Compound 218],8.13 nM
22,C[C@H]1CCCCN1c1nc(-c2ccnc(F)c2)[nH]c(=O)c1Cl [Compound 280],0.871 nM
23,CN(c1nc(-c2ccnc(F)c2)[nH]c(=O)c1Cl)[C@@H]1CCCNC1 [Compound 268],4.27 nM
24,O=c1[nH]c(-c2ccnc(F)c2)nc(N2CCn3ccnc3C2)c1Cl [Compound 353],1.62 nM
25,O=c1[nH]c(-c2ccnc(F)c2)nc(N2CCCC3(CCCN3)C2)c1Cl (stereo not shown) [Compound 250],9.77 nM
26,C[C@@H]1COC[C@@H](C)N1c1nc(-c2ccnc(F)c2)[nH]c(=O)c1Cl [Compound 341],6.61 nM
27,O=c1[nH]c(-c2ccnc(F)c2)nc(OC2CCOCC2)c1Cl [Compound 305],2 nM

# Target: Cdc7/ASK (Homo sapiens, UniProt O00311)
# Sequence (O00311 whole entry): as the sequence (O00311 whole entry) above
# Sequence (Q9UBU7 whole entry partner): as the sequence (Q9UBU7 whole entry partner) above
# Experiment: Cdc7 Biochemical Assay Method 1: 384 well ELISA, whole protein substrate MCM2, antibody against Phospho MCM2 (S53)
# Parameters: purchased
# Details: 2 μM ATP, read-out: Biochemical Method 1 (pIC50) (converted)
# Method in brief: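 MCM2 protein substrate was coated on nickel-chelate plates, then Cdc7/ASK was added with 2 μM ATP in 50 mM Tris-HCl pH 8.5, 10 mM MgCl2, 1 mM DTT, 4% DMSO, 90 min at room temperature. Phospho-MCM2 (S53) was detected by ELISA with an AP secondary and PNPP absorbance. IC50 was derived from % inhibition versus no-compound and no-enzyme controls.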
row,Structure (SMILES),IC50
1,O=c1[nH]c(-c2ccncc2)nc(N2C[C@H]3C[C@@H]2CN3)c1Cl [Compound 161],31.6 nM
2,"CC(C)CN1CCC(c2nc(-c3ccncc3)[nH]c(=O)c2Cl)CC1 [Compound 39, 5-chloro-4-(1-isobutyl-4-piperidyl)-2-(4-pyridyl)-1H-pyrimidin-6-one]",8.32 nM
3,O=c1[nH]c(-c2ccncc2)nc(N2CCNC(c3ccc(Cl)cc3)C2)c1Cl (stereo not shown) [Compound 168],9.33 nM
4,"O=c1[nH]c(-c2ccnc(F)c2)nc(C2CCOCC2)c1Cl [Compound 13, 5-chloro-2-(2-fluoro-pyridin-4-yl)-6-(tetrahydro-pyran-4-yl)-3H-pyrimidin-4-one]",1.23 nM
